The text below walks through data of patent US20030109523A1, “Bicyclic antagonists selective for the alphavbeta3 integrin” (Wyeth, priority 1999, published 2003).

Structures can show the parent of a compound that is named as a salt. Where two headings read alike, the source gives them in different places. Ends that are not written are not given here. Peptide text beside a SMILES is read from it.

For experiment [1], the target named is T1, Vitronectin Receptor (αVβ3) (Homo sapiens, UniProt P05106+P06756).
T1 construct: expressed in transfected cells; host or cells: 512P5 cells (plasma membrane preparation)
Nature of the experiment: Vitronectin Receptor (αVβ3) Binding Test Procedure.

Experiment [2] addresses T2, αVβ3 integrin (Homo sapiens, UniProt P05106+P06756).
T2 construct: αVβ3-expressing cell lines are maintained by standard tissue culture techniques; endogenous in cells; host or cells: αVβ3-expressing cell lines
Nature of the experiment: Osteopontin-αVβ3 Cell Attachment Test Procedure. In kind it is cell-based. Here is the method:
Osteopontin-αVβ3 Cell Attachment Test Procedure
Measuring the effect of compounds on the RGD-dependent attachment of cells to osteopontin mediated by the αVβ3 integrin.
Following incubation the wells were aspirated and washed once with D-PBS; plates can either be used immediately or stored for up to 1 week at 4° C. Prior to assay, the wells were blocked with 1% bovine serum albumin (BSA) in cell suspension media for 1 hour at 37° C. Following the blocking period, wells were aspirated and washed once with D-PBS.
αVβ3-expressing cell lines are maintained by standard tissue culture techniques. […] The cells were pelleted by low-speed centrifugation and washed three times with 0.5 mg/mL trypsin inhibitor in D-PBS (Sigma). The final cell pellet was resuspended in cell suspension media at a concentration of 10^6 cells/mL.
Incubation: 100 μL of diluted test compound was added to osteopontin-coated wells (in triplicate) followed by 100 μL of cell suspension; background cell attachment was determined in uncoated wells. The plate was incubated at 25° C. in a humidified air atmosphere for 1.5 hours. Following the incubation period, the wells were gently aspirated and washed once with D-PBS.
Cell Number Detection: The number of cells attached was determined by an MTT dye conversion assay (Promega) according to the manufacturer's instructions. Briefly, MTT dye was diluted in cell suspension media (15:85) and 100 μL was added to each well. […] The assay plates were covered and incubated at 37° C. in a humidified air atmosphere overnight.
The individual well optical density was expressed as a percentage of the maximal attachment (% Max) wells minus background attachment, and reported as the mean ±standard deviation.

In experiment [3] the target is T3, αIIbβ3 integrin (Homo sapiens, UniProt P05106+P08514).
T3 construct: Human Platelets: Platelet-enriched plasma was obtained commercially from a donor pool; from tissue; host or cells: human platelet-rich plasma from a commercial donor pool
As to the kind of experiment: ADP-Induced Platelet Aggregation. In kind it is cell-based. The note with it: for IC50: ADP 20 uM, human platelets; for remaining activity at 200 µM: percent of maximal aggregation; for ability to inhibit ADP induced platelet aggregation: reference peptides, at 200 μM. Here is the method: Measurement of the Effect of Compounds on ADP-Induced Platelet Aggregation
Measuring the effect of compounds on ADP-induced platelet aggregation mediated by a fibrinogen-αIIbβ3 integrin interaction.
Human Platelets: Platelet-enriched plasma was obtained commercially from a donor pool. The plasma was tested prior to shipment and found to be negative for HIV, HCV and Hepatitis B. Platelet-rich plasma (PRP) was obtained by diluting plasma to an approximate final concentration of 3×10(6) platelets per mL in platelet poor plasma (PPP). PPP was the supernatant of a lowspeed centrifugation of plasma.
Adenosine diphosphate (ADP): ADP was obtained commercially and diluted to 1 mM (stock solution) in distilled, deionized water (ddH2O).
Incubation: PRP and PPP were prewarmed in a water bath at 37° C. […] PRP plus sample compound in a final volume of 500 uL was added to a pre-warmed cuvette in a ChronoLog aggregometer. A control containing PRP and 5 uL of vehicle was treated similarly to the test cuvette; final vehicle concentration was 1%. The two cuvettes were incubated with stirring (1000 rpm) at 37° C. for 5 minutes. Five hundred microliters of PPP was used as a reference (100% aggregation).
Aggregation: To begin the test, ADP was added yielding a final concentration of 20 uM to both samples (plus and minus sample compound). Light transmittance was monitored continuously and compared to the reference cuvette. After five minutes, the test was terminated and the slope and maximal amplitude of the resulting aggregation plot was calculated by the aggregometer.
The percent of maximal aggregation is the ratio of the maximal aggregations of the sample cuvette to the control multiplied by 100 (% Max) and reported as the mean+−standard deviation.

Experiment [4] concerns osteoclasts. As to the kind of experiment: Osteoclast Bone Pitting. In kind it is cell-based, rat. Here is the method:
Osteoclast Bone Pitting The test procedure was conducted as described by R. J. Murrills and D. W. […] At this pH the adherent osteoclasts excavate an adequate number of resorption pits for assay purposes. Slices were fixed in 2.5% glutaraldehyde and osteoclasts counted following tartrate-resistant acid phosphatase staining. […] All cells were stripped from the slice by sonication on 0.25M NH4OH and the resorption pits formed by the osteoclasts during the experiment stained with toluidine blue. Resorption pits were quantified by manually counting. The experiments were conducted according to a block design with osteoclasts from each animal exposed to each treatment. Three replicate slices were used per treatment per animal, such that a total of 96 slices were examined for an experiment involving four animals and eight treatments (including control). Several parameters were recorded on a “per slice” basis: number of pits, number of osteoclasts, number of pits per osteoclast, number of fibroblast-like bone cells. SAS or JMP statistical software were used for statistical analysis. […] IC50s were calculated using dose-response curves.

Setting [5] is: % Max = percentage of the specific binding, read-out: (αVβ3) RECEPTOR BINDING, % @ concentration.
The mark [6] stands for this setting: @ 100 μM, % of maximal attachment, read-out: (αVβ3) CELL ATTACHMENT, % @ concentration.
Where [7] appears, read: Table VII, read-out: Platelet Aggregation αIIbβ3 IC50.
[8] abbreviates: attachment of cells to osteopontin, read-out: (αVβ3) IC50 CELL ATTACHMENT
[9] abbreviates: read-out: (αVβ3) IC50 RECEPTOR BINDING.
Setting [10] is: reference compounds, Table VI, read-out: IC50 (95% Confidence Interval).
Where [11] appears, read: reference RGD peptides, 125I-Echistatin 50 pM, read-out: IC50.

T2 sequence (P06756 31-889 limits assumed): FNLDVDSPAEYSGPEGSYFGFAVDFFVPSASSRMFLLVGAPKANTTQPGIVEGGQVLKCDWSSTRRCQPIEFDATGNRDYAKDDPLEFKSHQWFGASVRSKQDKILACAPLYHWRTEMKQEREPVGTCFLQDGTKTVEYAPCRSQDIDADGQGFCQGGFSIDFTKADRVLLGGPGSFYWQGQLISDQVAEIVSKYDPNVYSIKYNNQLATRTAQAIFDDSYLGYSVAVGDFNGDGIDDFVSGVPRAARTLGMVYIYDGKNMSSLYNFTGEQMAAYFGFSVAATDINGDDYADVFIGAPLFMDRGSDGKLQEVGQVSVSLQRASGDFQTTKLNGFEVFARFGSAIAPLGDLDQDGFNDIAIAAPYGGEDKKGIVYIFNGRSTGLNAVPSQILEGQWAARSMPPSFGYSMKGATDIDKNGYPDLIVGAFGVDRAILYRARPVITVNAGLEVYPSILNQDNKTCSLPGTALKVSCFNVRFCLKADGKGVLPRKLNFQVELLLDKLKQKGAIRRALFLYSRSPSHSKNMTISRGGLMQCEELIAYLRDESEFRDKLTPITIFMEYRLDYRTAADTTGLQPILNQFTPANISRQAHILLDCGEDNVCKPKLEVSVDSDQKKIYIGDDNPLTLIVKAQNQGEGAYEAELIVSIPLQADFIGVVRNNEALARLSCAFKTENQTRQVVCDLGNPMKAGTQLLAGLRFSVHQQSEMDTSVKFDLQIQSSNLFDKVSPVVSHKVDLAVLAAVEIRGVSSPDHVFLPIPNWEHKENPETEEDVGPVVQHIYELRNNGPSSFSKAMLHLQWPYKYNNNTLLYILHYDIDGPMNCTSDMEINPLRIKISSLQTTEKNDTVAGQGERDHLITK
T2 sequence (P06756 891-1048 partner limits assumed): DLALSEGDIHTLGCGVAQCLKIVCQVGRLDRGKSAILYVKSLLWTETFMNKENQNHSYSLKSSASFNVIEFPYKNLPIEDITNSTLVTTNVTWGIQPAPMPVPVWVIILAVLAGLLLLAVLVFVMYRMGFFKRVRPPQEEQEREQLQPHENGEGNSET
T2 sequence (P05106 27-788): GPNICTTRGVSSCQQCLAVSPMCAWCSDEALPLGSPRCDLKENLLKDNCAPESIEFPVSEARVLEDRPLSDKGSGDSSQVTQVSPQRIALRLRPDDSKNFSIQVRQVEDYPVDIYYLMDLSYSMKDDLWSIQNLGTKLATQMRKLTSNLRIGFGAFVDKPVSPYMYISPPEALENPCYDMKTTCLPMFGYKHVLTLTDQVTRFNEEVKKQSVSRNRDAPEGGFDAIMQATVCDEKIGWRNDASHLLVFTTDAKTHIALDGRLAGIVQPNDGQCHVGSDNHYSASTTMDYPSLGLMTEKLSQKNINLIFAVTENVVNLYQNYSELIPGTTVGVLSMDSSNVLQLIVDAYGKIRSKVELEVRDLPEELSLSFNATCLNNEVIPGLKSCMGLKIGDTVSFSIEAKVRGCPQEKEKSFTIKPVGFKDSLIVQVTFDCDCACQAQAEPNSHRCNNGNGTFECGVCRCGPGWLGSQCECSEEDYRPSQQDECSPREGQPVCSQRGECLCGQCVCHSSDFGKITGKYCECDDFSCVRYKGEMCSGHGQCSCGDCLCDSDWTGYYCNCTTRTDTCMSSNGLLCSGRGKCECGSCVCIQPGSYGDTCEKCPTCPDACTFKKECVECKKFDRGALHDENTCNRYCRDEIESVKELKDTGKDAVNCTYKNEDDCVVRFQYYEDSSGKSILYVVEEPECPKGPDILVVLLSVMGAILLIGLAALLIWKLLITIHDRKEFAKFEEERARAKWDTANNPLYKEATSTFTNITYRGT
T1 sequence (P06756 31-889 limits assumed): as the sequence (P06756 31-889 limits assumed) above
T1 sequence (P06756 891-1048 partner limits assumed): as the sequence (P06756 891-1048 partner limits assumed) above
T1 sequence (P05106 27-788): as the sequence (P05106 27-788) above
T3 sequence (P08514 32-887 limits assumed): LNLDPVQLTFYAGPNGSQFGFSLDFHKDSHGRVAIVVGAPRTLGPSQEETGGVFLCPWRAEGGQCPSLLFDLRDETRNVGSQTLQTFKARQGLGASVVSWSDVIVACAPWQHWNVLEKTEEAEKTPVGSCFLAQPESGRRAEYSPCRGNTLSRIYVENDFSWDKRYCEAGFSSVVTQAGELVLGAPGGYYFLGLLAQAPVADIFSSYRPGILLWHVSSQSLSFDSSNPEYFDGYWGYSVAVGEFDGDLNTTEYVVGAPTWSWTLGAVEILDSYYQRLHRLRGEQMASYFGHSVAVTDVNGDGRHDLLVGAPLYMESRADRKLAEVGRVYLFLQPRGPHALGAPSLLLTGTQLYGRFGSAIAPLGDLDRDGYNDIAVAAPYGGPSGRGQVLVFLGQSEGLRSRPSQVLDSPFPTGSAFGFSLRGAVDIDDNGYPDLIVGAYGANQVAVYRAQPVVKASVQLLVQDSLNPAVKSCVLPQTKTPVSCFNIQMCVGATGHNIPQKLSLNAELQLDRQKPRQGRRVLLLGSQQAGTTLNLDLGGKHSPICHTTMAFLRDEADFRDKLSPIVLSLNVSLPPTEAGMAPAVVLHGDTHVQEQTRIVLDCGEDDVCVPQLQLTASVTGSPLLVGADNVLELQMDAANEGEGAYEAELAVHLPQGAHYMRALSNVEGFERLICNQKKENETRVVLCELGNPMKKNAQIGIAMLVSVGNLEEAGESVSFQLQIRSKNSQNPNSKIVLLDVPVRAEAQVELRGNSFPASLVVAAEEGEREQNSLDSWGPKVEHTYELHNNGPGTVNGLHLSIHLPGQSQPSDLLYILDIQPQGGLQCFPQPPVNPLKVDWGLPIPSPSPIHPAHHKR
T3 sequence (P08514 891-1039 partner limits assumed): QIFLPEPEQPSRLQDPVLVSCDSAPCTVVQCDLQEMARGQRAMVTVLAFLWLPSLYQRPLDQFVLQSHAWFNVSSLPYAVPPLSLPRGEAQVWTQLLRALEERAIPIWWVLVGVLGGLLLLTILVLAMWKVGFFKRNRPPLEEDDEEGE
T3 sequence (P05106 27-788): as the sequence (P05106 27-788) above

By IC50 is commonly meant the midpoint of a concentration-inhibition curve. With `CCOC(=O)CC1CCc2cc(OCCCNC(=N)N)ccc2C1` (stereo not drawn) [Example 31, [6-(3-Guanidinopropoxy)-1,2,3,4-tetrahydro-napthalen-2-yl]-acetic Acid Ethyl Ester], the remaining activity at 30 µM in experiment [1] (setting [5]) was found to be 88%. Moreover, the remaining activity at 100 µM in experiment [2] (setting [6]) was 100%. The IC50 in experiment [3] (setting [7]) worked out at 160 µM.
With `N=C(N)NCCCOc1ccc2c(c1)CC(CC(=O)O)CC2.O=C(O)C(F)(F)F` (stereo not drawn) [Example 40, [7-(3-Guanidino-propoxy)-1,2,3,4-tetrahydro-napthalen-2-yl]-acetic Acid Trifluoroacetate], the “(αVβ3) RECEPTOR BINDING, % @ concentration” value in experiment [1] is on record as 130% @30. The IC50 amounted to 47 µM in experiment [2] (setting [8]) and 148 µM in experiment [3] (setting [7]). Moreover, the “BONE PITTING INHIBITION” value in experiment [4] (@ 238 μM) amounted to 39%@238.
In general, inhibition refers to the relative decrease from the control value, in per cent. `N=C(N)NCCOc1ccc2c(c1)CCCC(CC(=O)O)C2` (stereo not drawn) [Example 61, [2-(2-Guanidino-ethoxy)-6,7,8,9-tetrahydro-5H-benzocyclohepten-6-yl]-acetic Acid Hydrochloride]: the results for the IC50 in experiment [1] (setting [9]) and in experiment [2] (setting [8]) were 1.7 µM and 62.2 µM, respectively. Also, the inhibition at 271 µM in experiment [4] (Rattus norvegicus, Osteoclast, @ 271 μM) turned out to be 32%. In addition, the remaining activity at 200 µM in experiment [3] (Table VII) turned out to be 85.3%.
On to `N=C(N)NCCCCOc1ccc2c(c1)CCCC(CC(=O)O)C2` (stereo not drawn) [Example 63, [2-(4-Guanidino-butoxy)-6,7,8,9-tetrahydro-5H-benzocyclohepten-6-yl]-acetic Acid Trifluoroacetate], for which the figures for the half-maximal inhibitory concentration (IC50) in experiment [1] (setting [9]) and in experiment [2] (setting [8]) were 3.9 µM and 32.8 µM, respectively. Also, in experiment [3] (Table VII), the remaining activity at 200 µM is 51.5%.
For the molecule `N=C(N)NCCOc1ccc2cc(CC(=O)O)c(=O)[nH]c2c1` [Example 185, [7-(2-Guanidino-ethoxy)-2-oxo-1,2-dihydro-quinolin-3-yl]-acetic Acid], the remaining activity at 20 µM in experiment [2] (@ 20 μM, % of maximal attachment, read-out: (αVβ3) CELL ATTACHMENT, % @ concentration) stood at 102%. Besides, the remaining activity at 100 µM in experiment [2] (setting [6]) came to 96.8%. Moreover, in experiment [4] (Rattus norvegicus, Osteoclast, @ 239 μM), the inhibition at 239 µM came out at 58%. In experiment [3] (Table VII), the remaining activity at 200 µM worked out at 94.8%.
In the case of `COC(=O)CC1CCc2cc(OCCCNc3ncccn3)ccc2C1` (stereo not drawn) [Example 212, {6-[3-(Pyrimidin-2-ylamino)-propoxy]-1,2,3,4-tetrahydro-naphthalen-2-yl}-acetic Acid Methyl Ester], the remaining activity at 3 µM in experiment [1] (@ 3 μM, % Max = percentage of the specific binding, read-out: (αVβ3) RECEPTOR BINDING, % @ concentration) amounted to 98.7%. The remaining activity at 10 µM in experiment [1] (@ 10 μM, % Max = percentage of the specific binding, read-out: (αVβ3) RECEPTOR BINDING, % @ concentration) came out at 98.3%. Also, in experiment [1] (setting [5]), the remaining activity at 30 µM was 102% and the remaining activity at 100 µM was found to be 99.3%.
Consider `O=C(O)CC1CCc2cc(OCCCNc3ncccn3)ccc2C1` (stereo not drawn) [Example 213, {6-[3-(Pyrimidin-2-ylamino)-propoxy]-1,2,3,4-tetrahydro-naphthalen-2-yl}-acetic Acid], for which the remaining activity at 100 µM in experiment [1] (setting [5]) amounted to 54%.
As for `CCOC(=O)CC1CCc2cc(OCCCNC3=NCCCN3)ccc2C1` (stereo not drawn) [Example 216, {6-[3-(1,4,5,6-Tetrahydro-pyrimidin-2-ylamino)-propoxy]-1,2,3,4-tetrahydro-naphthalen-2-yl}-acetic Acid Ethyl Ester, Acetic Acid Salt], the IC50 in experiment [1] (setting [9]) was 60 µM. Further, the inhibition at 200 µM in experiment [4] (Rattus norvegicus, Osteoclast, @ 200 μM) was 95%.
For the molecule `Cc1ccc(S(=O)(=O)NC(=O)CC2CCc3cc(OCCCNC4=NCCCN4)ccc3C2)cc1` (stereo not drawn) [Example 217, 4-Methyl-N-({6-[3-(1,4,5,6-tetrahydro-pyrimidin-2-ylamino)-propoxyl]1,2,3,4-tetrahydro-naphthalen-2-yl}-acetyl)-benzenesulfonamide, Trifluoroacetic Acid Salt], the IC50 in experiment [1] (setting [9]) is 14.7 µM. Besides, the inhibition at 1 µM in experiment [4] (Rattus norvegicus, Osteoclast, @ 1 μM) is 51%. For the same molecule, the remaining activity at 200 µM in experiment [3] (Table VII) amounted to 98%.
Take `N=C(N)NCCOc1ccc2c(c1)CC(CCC(=O)O)C(=O)N2` (stereo not drawn) [Example 222, 3-[6-(2-Guanidino-ethoxy)-2-oxo-1,2,3,4-tetrahydro-quinolin-3-yl]-propionic Acid]: the remaining activity at 100 µM in experiment [2] (setting [6]) came out at 100%. In addition, the inhibition at 22 µM in experiment [4] (Rattus norvegicus, Osteoclast, @ 22 μM) was -58%. Also, the remaining activity at 200 µM in experiment [3] (Table VII) was determined as 90.3%.
Turning to `N=C(N)NCCC[C@H](NC(=O)CN)C(=O)NCC(=O)N[C@@H](CC(=O)O)C(=O)N[C@@H](CO)C(=O)N1CCC[C@H]1C(=O)O` [GRGDSP, reference compound], the “ability to inhibit ADP induced platelet aggregation” value in experiment [3] (Table VI) was “Inactive at 200”.
Turning to `N=C(N)NCCC[C@H](N)C(=O)NCC(=O)N[C@@H](CC(=O)O)C(=O)N[C@@H](Cc1ccccc1)C(=O)O` [RGDF, reference compound] (H-RGDF-OH; N-terminus and C-terminus assumed), the concentration for half-maximal inhibition (IC50) in experiment [3] (setting [10]) is 97.6 µM.
For “Calcitonin: anti-resorptive used in the clinic; reference compound of the bone pitting test is Rat Calcitonin (CGNLSTCMLGTYTQDLNKFHTFPQTSIGVGAP; ends and bridges not checked; cysteine pairing not given here; UniProt P01257 85-116, looked up) [reference compound]”, in experiment [4] (statement in words), the “osteoclast inhibitory activity in this test procedure” value is “significant osteoclast inhibitory activity”.
Take Echistatin [reference compound]: in experiment [3] (setting [10]), the IC50 was 0.0156 µM.
Take GRGDNP [GRGDNP, reference compound]: the IC50 in experiment [1] (setting [11]) is 0.237 µM. Further, the “ability to inhibit ADP induced platelet aggregation” value in experiment [3] (Table VI) is given as “Inactive at 200”.
Take GRGDTP [GRGDTP, reference compound]: the results for the concentration for half-maximal inhibition (IC50) in experiment [1] (setting [11]) and in experiment [2] were 0.49 µM and 5.2 µM, respectively. Also, the “ability to inhibit ADP induced platelet aggregation” value in experiment [3] (Table VI) is listed as “Inactive at 200”.
With GRGESP [reference compound], the “ability to inhibit αVβ3 binding” value in experiment [1] (reference peptide, at 100 μm) was “inactive at 100 μm”. Further, the “ability to inhibit ADP induced platelet aggregation” value in experiment [3] (Table VI) was “Inactive at 200”.
On to “[7-(2-Guanidino-ethoxy)-2-oxo-1,2-dihydro-quinolin-3-yl]propionic Acid Methyl Ester [Example 246]”, for which the “(αVβ3) CELL ATTACHMENT, % @ concentration” value in experiment [2] (@ 20 μM, % of maximal attachment) is given as 102%@ 20; in experiment [2] (@ 100 μM, % of maximal attachment) it was 84.2%@ 100. For the same molecule, the “BONE PITTING INHIBITION” value in experiment [4] (@ 26.2 μM) is on record as 52%@ 26.2.
